Experimental findings from US4342690A, “ω-Heteroaroyl(propionyl or butyryl)-L-prolines” (American Cyanamid Company, priority 1981, dated 1982) are described below.

Molecules are shown by their SMILES.

This experiment concerns the target T1, angiotensin converting enzyme (Oryctolagus cuniculus, UniProt P12822).
T1 construct: The ACE was extracted from rabbit lung acetone powder; tissue Pel-Freez Biol. Inc; host or cells: rabbit lung (acetone powder)
T1 sequence (P12822 34-1310): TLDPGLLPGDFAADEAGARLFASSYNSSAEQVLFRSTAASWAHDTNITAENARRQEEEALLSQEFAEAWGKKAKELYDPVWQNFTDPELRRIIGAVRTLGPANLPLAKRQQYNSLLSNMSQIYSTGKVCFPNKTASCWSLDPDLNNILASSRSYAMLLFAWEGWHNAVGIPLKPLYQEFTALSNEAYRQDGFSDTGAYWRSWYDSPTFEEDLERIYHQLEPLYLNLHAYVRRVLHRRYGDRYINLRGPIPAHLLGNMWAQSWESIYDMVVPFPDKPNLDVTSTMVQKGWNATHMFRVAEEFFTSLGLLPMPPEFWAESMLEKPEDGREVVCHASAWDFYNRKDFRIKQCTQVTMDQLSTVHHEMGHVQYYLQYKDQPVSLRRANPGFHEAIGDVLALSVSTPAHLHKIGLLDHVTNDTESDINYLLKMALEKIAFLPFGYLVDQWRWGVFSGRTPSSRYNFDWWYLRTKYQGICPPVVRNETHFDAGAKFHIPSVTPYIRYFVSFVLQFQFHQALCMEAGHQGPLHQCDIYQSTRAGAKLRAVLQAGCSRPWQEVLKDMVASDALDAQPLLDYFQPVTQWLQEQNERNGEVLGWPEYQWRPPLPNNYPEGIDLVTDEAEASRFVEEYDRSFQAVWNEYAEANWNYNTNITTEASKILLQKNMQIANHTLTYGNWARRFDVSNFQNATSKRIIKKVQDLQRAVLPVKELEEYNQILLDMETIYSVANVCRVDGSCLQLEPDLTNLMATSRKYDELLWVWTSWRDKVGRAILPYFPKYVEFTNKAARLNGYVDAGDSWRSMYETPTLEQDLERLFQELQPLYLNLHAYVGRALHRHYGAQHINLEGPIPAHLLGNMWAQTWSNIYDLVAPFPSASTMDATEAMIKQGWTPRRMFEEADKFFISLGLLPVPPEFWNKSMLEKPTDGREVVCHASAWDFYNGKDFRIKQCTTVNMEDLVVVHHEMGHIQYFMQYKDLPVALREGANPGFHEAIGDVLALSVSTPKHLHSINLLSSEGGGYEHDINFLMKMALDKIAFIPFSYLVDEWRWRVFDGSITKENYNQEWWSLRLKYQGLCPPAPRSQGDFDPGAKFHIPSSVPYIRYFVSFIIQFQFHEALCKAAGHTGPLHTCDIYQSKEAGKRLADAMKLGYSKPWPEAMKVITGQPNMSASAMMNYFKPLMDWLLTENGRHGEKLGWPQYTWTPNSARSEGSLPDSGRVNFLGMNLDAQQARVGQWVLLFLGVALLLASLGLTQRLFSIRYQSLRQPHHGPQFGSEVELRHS
As to the kind of experiment: Spectrophotometric Assay for Angiotensin Converting Enzyme Inhibitors. Type of experiment: biochemical. As to conditions: substrate benzoyl-glycyl-histidyl-leucine; crude ACE extract from rabbit lung acetone powder; 30 minutes at 37° C. The text has this:
The activity of the novel compounds of this invention as hypotensive agents was established in two systems which measure their ability as angiotensin converting enzyme inhibitors; by utilizing a spectrophotometric assay of the compounds in vitro and by the measurement of the blood pressure lowering effect of the compounds in the aorta-coarcted renal hypertensive rats.
Spectrophotometric Assay for Angiotensin Converting Enzyme Inhibitors
The in vitro activity for inhibition of the angiotensin converting enzyme (ACE) was measured by the method of Cushman, D. W. and Cheung, H. S., Biochem. Pharmacol., 20, 1637-1648 (1971), using benzoyl-glycyl-histidyl-leucine as the substrate. The reaction mixture consisted of 50 μl. of potassium phosphate (500 mM., pH 10.2), […]. of sodium chloride (2500 mM.), 25 μl. of substrate (50 mM.), 30 to 50 μl. of the crude extract of ACE, 10 μl. of test compound (2.5 mM.) or vehicle and a suitable amount of distilled water to give a total volume of 250 μl. This reaction mixture was incubated for 30 minutes at 37° C. and the reaction was then terminated by the addition of 250 μl. of 1 N hydrochloric acid. The hippuric acid was then extracted with 1.5 ml. of ethyl acetate by vortex mixing for 15 seconds. After centrifugation, one ml. of th ethyl acetate layer was pipetted into a new tube and vaporated to dryness. The extracted hippuric acid was then dissolved in one ml. of water and the amount of this acid was then measured by its absorbance at 228 nm. The ACE was extracted from rabbit lung acetone powder (Pel-Freez Biol. Inc.) by blending 5 g. of the powder in 50 ml. of phosphate buffer (50 mM., pH 8.3) and then centrifuging at 40,000 g for 40 minutes. The supernatant was then kept at 5° C. and used as the enzyme source. The activity of the ACE inhibitor was calculated as the percent inhibition of ACE activity compared to the control value of that particular assay. A full dose-response inhibitory curve is then performed to determine the IC50 value which may be defined as the molar concentration of a compound that will inhibit the ACE activity by 50%.
With `CC(=O)SC(CC(=O)N1CCC[C@H]1C(=O)O)C(=O)c1ccc(Cl)s1` (stereo partly drawn) [Example 3, 1-[3-(Acetylthio)-3-(5-chloro-2-thenoyl)propionyl]-L-proline], the IC50 came to 108 nM.
The value for `CC(=O)SC(CC(=O)N1CCC[C@H]1C(=O)O)C(=O)c1csc2ccccc12` (stereo partly drawn) [Example 4, 1-[3-(Acetylthio)-3-(benzo[b]thien-3-ylcarbonyl)propionyl]-L-proline] was 139 nM.
In the case of `CC(=O)SC(C(=O)c1cc2ccccc2s1)C(C)C(=O)N1CCC[C@H]1C(=O)O` (stereo partly drawn) [Example 35, 1-[3-Acetylthio-3-(benzo[b]thien-2-ylcarbonyl)-2-methylpropionyl]-L-proline] it was 21000 nM.
In the case of `CC(=O)SC(CC(=O)N1CCC[C@H]1C(=O)O)C(=O)c1ccco1` (stereo partly drawn) [Example 36, 1-[3-Acetylthio-3-(2-furoyl)propionyl]-L-proline] it was 675 nM; in that of `CC(=O)SC(CC(=O)N1CCC[C@H]1C(=O)O)C(=O)c1cc2ccccc2o1` (stereo partly drawn) [Example 37, 1-[3-Acetylthio-3-(2-benzofuranylcarbonyl)propionyl]-L-proline], 74 nM.
`CC(=O)SC(CC(=O)N1CCC[C@H]1C(=O)O)C(=O)c1ccc(Br)s1` (stereo partly drawn) [Example 2, 1-[3-(Acetylthio)-3-(5-bromo-2-thenoyl)propionyl]-L-proline] registered a 50% inhibitory concentration (IC50) of 109 nM.
The value for `CC(=O)SC(CC(=O)N1CCC[C@H]1C(=O)O)C(=O)c1cccs1` (stereo partly drawn) [Example 1, 1-[3-(Acetylthio)-3-(2-thenoyl)propionyl]-L-proline] was 256 nM.
